# Test results: the NIST ThermoML archive (doi:10.1021/je800218g)
# ± gives the expanded uncertainty stated by the source.
# Experiment: activity coefficient (dimensionless); of the first substance listed, at infinite dilution; xn = mol fraction of the nth substance listed
# Settings: Liquid, Chromatography, x1 = 0
activity coefficient (303.15 K),activity coefficient (313.15 K),activity coefficient (323.15 K),activity coefficient (333.15 K),activity coefficient (343.15 K),activity coefficient (353.15 K),activity coefficient (363.15 K),SMILES
319 ± 34,294 ± 31,272 ± 29,254 ± 27,248 ± 26,235 ± 25,224 ± 24,CCCCCCCCC [nonane] + CCn1cc[n+](C)c1.F[B-](F)(F)F
1.36 ± 0.14,1.38 ± 0.14,1.39 ± 0.14,1.41 ± 0.15,1.43 ± 0.15,1.46 ± 0.15,1.5 ± 0.15,ClC(Cl)Cl [trichloromethane] + CCn1cc[n+](C)c1.F[B-](F)(F)F
93 ± 9.8,79.7 ± 8.4,67.7 ± 7.1,58.9 ± 6.2,51.4 ± 5.4,43.3 ± 4.6,32.3 ± 3.4,CC1CCCCC1 [methylcyclohexane] + CCn1cc[n+](C)c1.F[B-](F)(F)F
1.35 ± 0.14,1.4 ± 0.14,1.42 ± 0.15,1.44 ± 0.15,1.47 ± 0.15,1.49 ± 0.15,1.51 ± 0.16,"C1COCCO1 [1,4-dioxane] + CCn1cc[n+](C)c1.F[B-](F)(F)F"
2.94 ± 0.31,2.92 ± 0.31,2.89 ± 0.3,2.87 ± 0.3,2.83 ± 0.3,2.79 ± 0.29,2.75 ± 0.29,CCOC(C)=O [ethyl acetate] + CCn1cc[n+](C)c1.F[B-](F)(F)F
1.87 ± 0.2,1.85 ± 0.19,1.83 ± 0.19,1.82 ± 0.19,1.8 ± 0.19,1.77 ± 0.18,1.74 ± 0.18,C1CCOC1 [tetrahydrofuran] + CCn1cc[n+](C)c1.F[B-](F)(F)F
154 ± 16,138 ± 15,124 ± 13,111 ± 12,104 ± 11,96 ± 10,90.4 ± 9.5,CCCCCCC [heptane] + CCn1cc[n+](C)c1.F[B-](F)(F)F
68.8 ± 7.2,62.5 ± 6.6,57.6 ± 6.1,53.9 ± 5.7,49 ± 5.2,45.7 ± 4.8,42.1 ± 4.4,CCCCC [pentane] + CCn1cc[n+](C)c1.F[B-](F)(F)F
1110 ± 120,984 ± 100,861 ± 91,751 ± 79,643 ± 68,545 ± 58,456 ± 48,CCCCCCCCCC [decane] + CCn1cc[n+](C)c1.F[B-](F)(F)F
6.49 ± 0.68,6.3 ± 0.66,6.11 ± 0.64,5.89 ± 0.62,5.58 ± 0.59,5.44 ± 0.57,5.31 ± 0.56,CCc1ccccc1 [ethylbenzene] + CCn1cc[n+](C)c1.F[B-](F)(F)F
70.5 ± 7.4,60.9 ± 6.4,49.7 ± 5.2,39.6 ± 4.2,31.2 ± 3.3,27.5 ± 2.9,21.9 ± 2.3,C1CCCCC1 [cyclohexane] + CCn1cc[n+](C)c1.F[B-](F)(F)F
2.13 ± 0.22,2.11 ± 0.22,2.09 ± 0.22,2.05 ± 0.21,2.02 ± 0.21,1.99 ± 0.21,1.96 ± 0.21,c1ccccc1 [benzene] + CCn1cc[n+](C)c1.F[B-](F)(F)F
0.892 ± 0.091,0.875 ± 0.09,0.853 ± 0.087,0.832 ± 0.085,0.814 ± 0.084,0.792 ± 0.082,0.769 ± 0.079,CC#N [acetonitrile] + CCn1cc[n+](C)c1.F[B-](F)(F)F
21.8 ± 2.3,19.6 ± 2.1,16.6 ± 1.8,14.4 ± 1.5,12.8 ± 1.3,10.5 ± 1.1,9.13 ± 0.96,C1=CCCCC1 [cyclohexene] + CCn1cc[n+](C)c1.F[B-](F)(F)F
3.38 ± 0.35,3.44 ± 0.36,3.49 ± 0.37,3.56 ± 0.37,3.62 ± 0.38,3.65 ± 0.38,3.73 ± 0.39,C=Cc1ccccc1 [styrene] + CCn1cc[n+](C)c1.F[B-](F)(F)F
1.12 ± 0.12,1.16 ± 0.12,1.21 ± 0.12,1.25 ± 0.13,1.32 ± 0.14,1.36 ± 0.14,1.39 ± 0.14,ClCCl [dichloromethane] + CCn1cc[n+](C)c1.F[B-](F)(F)F
101 ± 11,95.3 ± 10,90.6 ± 9.5,85.3 ± 9,77.4 ± 8.2,74.5 ± 7.8,69.5 ± 7.3,CCCCCC [hexane] + CCn1cc[n+](C)c1.F[B-](F)(F)F
158 ± 17,143 ± 15,124 ± 13,112 ± 12,101 ± 11,85.8 ± 9,75.3 ± 7.9,"CC(C)CC(C)(C)C [2,2,4-trimethylpentane] + CCn1cc[n+](C)c1.F[B-](F)(F)F"
216 ± 23,201 ± 21,187 ± 20,173 ± 18,158 ± 17,149 ± 16,140 ± 15,CCCCCCCC [octane] + CCn1cc[n+](C)c1.F[B-](F)(F)F

SMILES,activity coefficient (303.15 K),activity coefficient (313.15 K),activity coefficient (323.15 K),activity coefficient (333.15 K),activity coefficient (343.15 K),activity coefficient (353.15 K),activity coefficient (363.15 K)
ClC(Cl)(Cl)Cl [tetrachloromethane] + CCn1cc[n+](C)c1.F[B-](F)(F)F,4.31 ± 0.45,4.41 ± 0.46,4.56 ± 0.48,4.66 ± 0.49,4.8 ± 0.5,4.89 ± 0.51,4.98 ± 0.52
"Cc1ccccc1C [1,2-dimethylbenzene] + CCn1cc[n+](C)c1.F[B-](F)(F)F",4.73 ± 0.5,4.69 ± 0.49,4.64 ± 0.49,4.58 ± 0.48,4.5 ± 0.47,4.41 ± 0.46,4.34 ± 0.46
"Cc1cccc(C)c1 [1,3-dimethylbenzene] + CCn1cc[n+](C)c1.F[B-](F)(F)F",5.88 ± 0.62,5.71 ± 0.6,5.57 ± 0.59,5.32 ± 0.56,5.17 ± 0.54,4.98 ± 0.52,4.83 ± 0.51
"Cc1ccc(C)cc1 [1,4-dimethylbenzene] + CCn1cc[n+](C)c1.F[B-](F)(F)F",5.41 ± 0.57,5.3 ± 0.56,5.14 ± 0.54,5.03 ± 0.53,4.96 ± 0.52,4.88 ± 0.51,4.76 ± 0.5
Cc1ccccc1 [toluene] + CCn1cc[n+](C)c1.F[B-](F)(F)F,3.68 ± 0.39,3.66 ± 0.38,3.62 ± 0.38,3.56 ± 0.37,3.52 ± 0.37,3.48 ± 0.37,3.4 ± 0.36
CC(C)=O [acetone] + CCn1cc[n+](C)c1.F[B-](F)(F)F,1.23 ± 0.13,1.26 ± 0.13,1.27 ± 0.13,1.29 ± 0.13,1.31 ± 0.14,1.33 ± 0.14,1.33 ± 0.14
